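Step 1: Grow cells in 96-well plates. Step 2: Expose to compound for 48 hours at 5 concentrations. Step 3: Interpolate endpoints linearly; if unreached, use highest concentration. TGI is the concentration that stops growth completely.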
How the values were obtained:
Experiment in all cases: DTP human tumour cell line panel, 48 h
[1] = system: SW-620 colon
[2] = system: OVCAR-5 ovarian
[3] = system: HCT-116 colon
[4] = system: UACC-257 melanoma
[5] = system: U251 CNS
[6] = system: 786-0 renal
[7] = system: HCT-15 colon
[8] = system: LOX IMVI melanoma
[9] = system: HOP-62 NSCLC
[10] = system: SF-295 CNS
[11] = system: SF-539 CNS
[12] = system: MDA-MB-231 breast
[13] = system: UO-31 renal
[14] = system: DU-145 prostate
[15] = system: MCF7 breast
[16] = system: SK-OV-3 ovarian
[17] = system: A549 NSCLC
[18] = system: SK-MEL-2 melanoma
[19] = system: HT29 colon
[20] = system: SF-268 CNS
[21] = system: MALME-3M melanoma
[22] = system: SNB-19 CNS
[23] = system: MDA-N
[24] = system: TK-10 renal
[25] = system: K-562 leukemia
[26] = system: HOP-92 NSCLC
[27] = system: NCI/ADR-RES ovarian
[28] = system: OVCAR-4 ovarian
[29] = system: PC-3 prostate
[30] = system: OVCAR-8 ovarian
[31] = system: SN12C renal
[32] = system: NCI-H23 lung
[33] = system: HS 578T breast
[34] = system: OVCAR-3 ovarian
[35] = system: SNB-75 CNS
[36] = system: CCRF-CEM leukemia
[37] = system: KM12 colon
[38] = system: EKVX NSCLC
[39] = system: M14 melanoma
[40] = system: MOLT-4 leukemia
[41] = system: BT-549 breast
[42] = system: HL-60(TB) leukemia
[43] = system: CAKI-1 renal
[44] = system: ACHN renal
[45] = system: MDA-MB-435
[46] = system: NCI-H460 lung
[47] = system: COLO 205 colon
[48] = system: UACC-62 melanoma
[49] = system: NCI-H522 lung
[50] = system: NCI-H226 lung
[51] = system: T-47D breast
[52] = system: IGROV1 ovarian
[53] = system: SR leukemia
[54] = system: RXF 393 renal
[55] = system: SK-MEL-28 melanoma
[56] = system: SK-MEL-5 melanoma
[57] = system: RPMI-8226 leukemia
[58] = system: A498 renal

## C/C(=N/O)c1cccc(Nc2nc3ccccc3c3[nH]c4ccccc4c23)c1
[1]
  TGI: 19.4 µM
[2]
  TGI: 9.27 µM
[3]
  TGI: 4.77 µM
[4]
  TGI: 17.6 µM
[5]
  TGI: 11.5 µM
[6]
  TGI: 6.96 µM
[7]
  TGI: 10.6 µM
[8]
  TGI: 6.06 µM
[9]
  TGI: 8.83 µM
[10]
  TGI: 5.58 µM
[11]
  TGI: 23.9 µM
[12]
  TGI: 11.5 µM
[13]
  TGI: 12 µM
[14]
  TGI: 5.59 µM
[15]
  TGI: 5.63 µM
[16]
  TGI: 22.1 µM
[17]
  TGI: 8.8 µM
[18]
  TGI: 5.8 µM
[19]
  TGI: 6.51 µM
[20]
  TGI: 6.24 µM
[21]
  TGI: 13.8 µM
[22]
  TGI: 19.2 µM
[23]
  TGI: 7.56 µM
[24]
  TGI: 15.6 µM
[25]
  TGI: 10.6 µM
[26]
  TGI: 6.95 µM
[27]
  TGI: 20 µM
[28]
  TGI: 6.96 µM
[29]
  TGI: 8.05 µM
[30]
  TGI: > 24.4 µM
[31]
  TGI: 13.4 µM
[32]
  TGI: 11.8 µM
[33]
  TGI: 21.4 µM
[34]
  TGI: 5.1 µM
[35]
  TGI: 6.95 µM
[36]
  TGI: > 100 µM
[37]
  TGI: 9.92 µM
[38]
  TGI: 7.38 µM
[39]
  TGI: 6.3 µM
[40]
  TGI: 3.55 µM
[41]
  TGI: 34.7 µM
[42]
  TGI: 8.23 µM
[43]
  TGI: 6.89 µM
[44]
  TGI: 7.17 µM
[45]
  TGI: 7.52 µM
[46]
  TGI: 4.74 µM
[47]
  TGI: 7.1 µM
[48]
  TGI: 4.65 µM
[49]
  TGI: 4.4 µM
[50]
  TGI: 21 µM
[51]
  TGI: 3.82 µM
[52]
  TGI: 13.3 µM
[53]
  TGI: 3.85 µM
[54]
  TGI: 4.59 µM
[55]
  TGI: 12.4 µM
[56]
  TGI: 4.08 µM

## O=C(CSC1=NCCN1)c1ccccc1
[1]
  TGI: > 100 µM
[2]
  TGI: > 100 µM
[3]
  TGI: > 100 µM
[4]
  TGI: > 100 µM
[5]
  TGI: > 100 µM
[6]
  TGI: > 100 µM
[7]
  TGI: > 100 µM
[8]
  TGI: > 100 µM
[9]
  TGI: > 100 µM
[10]
  TGI: > 100 µM
[11]
  TGI: > 100 µM
[12]
  TGI: > 100 µM
[13]
  TGI: > 100 µM
[14]
  TGI: > 100 µM
[15]
  TGI: > 100 µM
[16]
  TGI: > 100 µM
[17]
  TGI: > 100 µM
[18]
  TGI: > 100 µM
[19]
  TGI: > 100 µM
[57]
  TGI: > 100 µM
[20]
  TGI: > 100 µM
[58]
  TGI: > 100 µM
[21]
  TGI: > 100 µM
[22]
  TGI: > 100 µM
[23]
  TGI: > 100 µM
[24]
  TGI: > 100 µM
[25]
  TGI: > 100 µM
[26]
  TGI: > 100 µM
[27]
  TGI: > 100 µM
[28]
  TGI: > 100 µM
[29]
  TGI: > 100 µM
[30]
  TGI: > 100 µM
[31]
  TGI: > 100 µM
[32]
  TGI: > 100 µM
[33]
  TGI: > 100 µM
[34]
  TGI: > 100 µM
[35]
  TGI: > 100 µM
[37]
  TGI: > 100 µM
[38]
  TGI: > 100 µM
[39]
  TGI: > 100 µM
[40]
  TGI: > 100 µM
[41]
  TGI: > 100 µM
[43]
  TGI: > 100 µM
[44]
  TGI: > 100 µM
[45]
  TGI: > 100 µM
[46]
  TGI: > 100 µM
[47]
  TGI: > 100 µM
[48]
  TGI: > 100 µM
[49]
  TGI: > 100 µM
[50]
  TGI: > 100 µM
[51]
  TGI: > 100 µM
[52]
  TGI: > 100 µM
[53]
  TGI: > 100 µM
[54]
  TGI: > 100 µM
[55]
  TGI: > 100 µM
[56]
  TGI: > 100 µM
